This note sets out measurements from patent US9567643B2, “Compositions and methods for treating cancers” (Aptose Biosciences Inc., priority 2013, dated 2017).

Counter-ions that a name gives are not always drawn.

The subject of series [1] is advanced or metastatic solid tumours. Description: Open-label phase 1 dose-escalating study. It counts as in vivo. The procedure:
Phase I: This was an open-label, phase 1 study to determine the maximum tolerated dose (MTD) or appropriate target dose if MTD not reached to identify the recommended phase 2 dose of LOR-253 HCl in patients with advanced or metastatic solid tumours. In the first set of doses, LOR-253 HCl was given in ascending doses until the maximum administered dose or appropriate target dose is reached. In the other set of doses, LOR-253 HCl was given in ascending doses starting from 20 mg/m2 until the maximum administered dose or appropriate target dose is reached. Patient as treated on LOR-253 HCl for 2 cycles for the evaluation. • Other Name: No other names are used. • Study Type: Interventional • Study Design: • Endpoint Classification: Safety Study • Intervention Model: Single Group Assignment • Masking: Open Label • Primary Purpose: Treatment • Official Title: Open-Label, Phase 1 Study of LOR-253 HCl in Patients With Advanced or Metastatic Solid Tumours Primary Outcome Measures: • To determine the maximum tolerated dose (MTD) or appropriate target dose if MTD not reached to identify the recommended phase 2 dose of LOR-253 HCl in patients with advanced or metastatic solid tumours. [Time Frame: 8 weeks] Secondary Outcome Measures: • To characterize the safety profile of LOR-253 HCl when administered to patients with advanced or metastatic solid tumours. [Time Frame: 8 weeks] Inclusion Criteria: • 1. Male or female 18 years of age or older. • 2. Histologically confirmed diagnosis of solid tumor for which no effective therapy is available or that is unresponsive to conventional therapy. • 3. Meet laboratory parameter requirements at study entry. Exclusion Criteria: • 1. Chemotherapy, radiotherapy, biologic therapy, immunotherapy or any other investigational drugs within 21 days of beginning study treatment with LOR-253 HCl. • 2. A hematologic malignancy. • 3. A history of brain or other central nervous system metastases. • 4. Have a presence of a significant infection. • 5. Clinically significant autoimmune disease. • 6. Uncontrolled intercurrent illness. • 7. With iron or copper overload syndromes. • 8. Pregnancy or breast feeding.

The next series deals with Kasumi-1. Description: Kasumi-1 AML xenograft model. The settings on record: Kasumi-1 xenograft; 30 mg/kg (15 mg/kg twice per day) i.v., two consecutive days per week, four weeks; p=0.028 by Student's t-test; FIG. 15. It counts as in vivo, athymic nude mice. The procedure:
(§1) The anti-tumor activity of LOR-253 HCl was evaluated in another in vivo animal model of human AML. The human AML cell line Kasumi-1 was implanted subcutaneously into athymic nude mice. Some tumor-bearing mice were treated with LOR-253 HCl at 30 mg/kg (15 mg/kg twice per day) for two consecutive days per week for four weeks (the “LOR-253 treatment group”). LOR-253 was administered by intravenous (i.v.) bolus injection as the hydrochloric salt form (LOR-253-HCl) formulated in 20% Polyethylene Glycol 400, 10% Propylene Glycol, and 10% Solutol HS in 60% water.
(§2) The major endpoint was to observe for tumor growth inhibition after treatment with LOR-253 HCl and compare the anti-tumor effects of different dosing schedules. Tumor sizes were measured three times per week from day 10 after the tumor cell inoculation. Tumors were measured in three dimensions using calipers and the volume was expressed in millimeters cubed using the formula: V=0.5a×b×c, where a, b, and c are the length, width, and height of the tumor, respectively. Mean tumor volumes+/−standard error (SE) were calculated from each measurement and then plotted in a standard graph to compare the anti-tumor efficacy of drug treatment to that of control (FIG. 15). Toxicity was assessed by clinical observations and by measurement of mouse body weight in grams twice per week over the course of the study. […]

Series [2] can be described thus: Toxicity assessment in Kasumi-1 tumor-bearing mice. The settings on record: 15 mg/kg twice per day i.v., two days per week, four weeks. How it is done:
as §1, §2

Another series concerns HL-60. The experiment in a line: HL-60 AML xenograft model. Format: in vivo, athymic nude mice. The settings on record: HL-60 xenograft, 3 cycles, FIG. 17. How it is done: The human AML cell line HL-60 was implanted subcutaneously into athymic nude mice. Tumor-bearing mice were treated with LOR-253 HCl alone or in combination with azacitidine, with azacitidine alone, or with a negative control vehicle. The detailed treatment conditions are as follows. • Group 1: Negative control group. LOR-253 HCl control vehicle, 2×/day, 3 cycles of 2 consecutive days, 5 days between cycles, i.v., plus 1% D-mannitol every four days by s.c. injection • Group 2: Azacitidine (in 1% D-mannitol) at 10 mg/kg 1× on days 1, 4, 8, 11, 15 and 18 by subcutaneous (s.c.) injection • Group 3: LOR-253 HCl at 15 mg/kg bid for 3 cycles, each cycle is 2 consecutive days of dosing per week with 5 days of non-dosing, i.v., n=9 (2T-5B) • Group 4: LOR-253 HCl at 15 mg/kg 2×/day (bid) for 3 cycles, each cycle is 1 day of dosing per week with 6 days of non-dosing, i.v., n=9 (1T-6B) • Group 5: Combination of LOR-253 (2T-5B) and azacitidine. LOR-253 HCl at 15 mg/kg bid for 3 cycles, each cycle is 2 consecutive days of dosing per week with 5 days of non-dosing, i.v., n=9 (2T-5B) plus azacitidine at 10 mg/kg 1× every four days by s.c. injection • Group 6: Combination of LOR-253 (1T-6B) and azacitidine. […]
Tumor sizes were measured three times per week.

Another series deals with KG-1. Description: KG-1 AML xenograft model. Format: in vivo, mice. The settings on record: KG-1 xenograft; 15 mg/kg-iv, bid, 2T/wk; FIG. 20. How it is done: Xenograft model mice for AML cell line KG-1 was generated with the same method as in Examples 14 and 15, and were treated with LOR-253 HCl or control according to the following regime.
LOR-253—15 mg/kg-iv, bid, 2T/wk—Day 1

The subject of another series is THP-1. Description: THP-1 AML xenograft model. Format: in vivo, mice. The settings on record: THP-1 xenograft; Group-2: i.v. Days 1, 2, 8, 9, 15, 16 and IP Days 22-25, 29, 30; FIG. 21. How it is done: The anti-tumor activity of LOR-253 HCl, as a single agent and in combination with azacitidine, was evaluated in yet another in vivo animal model of human AML. Xenograft model mice for AML cell line THP-1 was generated with the same method as in Examples 14 and 15, and were treated with LOR-253 HCl alone or in combination with azacitidine, with azacitidine alone, or with a negative control vehicle, and tumor sizes were measured as described in Examples 14 and 15. The detailed treatment conditions are shown as follows, and the results are shown in FIG. 21. • Group 1 Control: received i.v. treatments with LOR-253 control vehicle (CV) on Days 1, 2, 8, 9, 15 &16; received subcutaneous (SC) treatments with Azacitidine control vehicle on Days 1, 4, 8, 11, 15, 18, 22, 25, 29 &32; and received intraperitoneal (IP) treatments with LOR-253-CV on Days 22, 23, 24, 25, 29&30. • Group-2—LOR-253: received i.v. treatments on Days 1, 2, 8, 9, 15 &16; received IP treatments on Days 22, 23, 24, 25, 29&30 • Group-3—Azacitidine: received SC treatments on Days 1, 4, 8, 11, 15, 18, 22, 25, 29 &32. • Group-4—Combination: received i.v. treatments with LOR-253 on Days 1, 2, 8, 9, 15 &16; received IP treatments with LOR-253 on Days 22, 23, 24 &25; and received SC-treatment with Azacitidine on Days 1, 4, 8, 11, 15, 18, 22 &25

The nature of series [3]: Pharmacokinetics, serum level after i.v. bolus. It counts as in vivo. The settings on record: CD-1 nude mice; i.v. bolus of LOR-253 HCl at 1, 5, 15 mg/kg; FIG. 10. The procedure: To study the pharmacokinetic (PK) […], CD-1 nude mice were treated by i.v. bolus injections of LOR-253 HCl at 1, 5, and 15 mg/kg. The serum level of LOR-253 was measured.

Series [4] can be described thus: Repeat-dose toxicity study, cardiovascular effects. It counts as in vivo. The settings on record: dogs, highest dose tested (data not shown).
The target in series [5] is hERG tail current density (Homo sapiens, UniProt Q12809). Description: hERG tail current inhibition. Format: cell-based. The settings on record: preclinical testing.
The next series concerns CYP450 enzymes. Description: CYP450 inhibition. Format: in vitro ADME. The settings on record: preclinical testing.
The nature of series [6]: GLP blood compatibility studies.
Where [7] appears, read: patients with advanced solid tumors, phase I.

Sequence of hERG tail current density (Q12809 whole entry): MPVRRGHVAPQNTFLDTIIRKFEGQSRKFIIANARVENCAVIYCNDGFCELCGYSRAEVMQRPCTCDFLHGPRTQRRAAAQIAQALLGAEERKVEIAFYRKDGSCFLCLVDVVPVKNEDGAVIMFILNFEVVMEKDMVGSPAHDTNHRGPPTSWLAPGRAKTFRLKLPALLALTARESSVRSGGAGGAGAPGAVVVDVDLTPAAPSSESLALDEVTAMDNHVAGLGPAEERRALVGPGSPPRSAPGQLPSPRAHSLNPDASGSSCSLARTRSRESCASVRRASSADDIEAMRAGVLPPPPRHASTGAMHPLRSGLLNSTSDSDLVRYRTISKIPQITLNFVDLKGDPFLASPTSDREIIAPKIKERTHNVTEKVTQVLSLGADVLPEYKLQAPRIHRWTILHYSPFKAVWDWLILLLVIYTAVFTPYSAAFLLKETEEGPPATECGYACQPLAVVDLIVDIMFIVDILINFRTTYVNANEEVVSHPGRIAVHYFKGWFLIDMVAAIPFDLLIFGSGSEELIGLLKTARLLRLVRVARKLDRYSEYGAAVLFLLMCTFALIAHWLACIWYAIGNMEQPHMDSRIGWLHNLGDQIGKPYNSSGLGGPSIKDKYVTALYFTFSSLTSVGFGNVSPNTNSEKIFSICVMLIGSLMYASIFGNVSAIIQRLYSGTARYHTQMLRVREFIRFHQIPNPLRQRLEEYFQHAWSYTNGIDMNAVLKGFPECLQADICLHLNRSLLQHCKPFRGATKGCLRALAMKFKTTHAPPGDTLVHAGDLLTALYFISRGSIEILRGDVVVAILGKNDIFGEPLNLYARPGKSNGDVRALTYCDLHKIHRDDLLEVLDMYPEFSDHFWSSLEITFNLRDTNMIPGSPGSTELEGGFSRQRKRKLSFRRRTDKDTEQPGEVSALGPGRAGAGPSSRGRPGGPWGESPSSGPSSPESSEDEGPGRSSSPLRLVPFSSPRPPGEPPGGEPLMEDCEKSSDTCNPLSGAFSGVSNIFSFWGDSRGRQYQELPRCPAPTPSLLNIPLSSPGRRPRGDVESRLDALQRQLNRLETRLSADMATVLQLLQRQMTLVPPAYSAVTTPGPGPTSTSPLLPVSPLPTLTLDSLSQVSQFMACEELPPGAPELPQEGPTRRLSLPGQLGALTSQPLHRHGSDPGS

With `Cc1[nH]c2ccc(F)cc2c1-c1nc2c3cccnc3c3ncccc3c2[nH]1` [LOR-253 HCl], the safety profile entry in series [1] (N=27 patients across 7 dose levels, phase I) is reported as “Excellent Safety Profile”. Also, the “tumor response in single patient” value in [1] (patient with NSCLC (poorly differentiated adenocarcinoma) and extensive metastases refractory to prior therapies, FIG. 12) was “Tumor shrinkage”. Further, in series [1] (setting [7]), the RECIST partial response entry was “No RECIST PR”. In [1] (setting [7]), the “most common AE and SAE” value is “Fatigue and 1 case of reversible hypophosphatemia”. For the same compound, the “Stable Disease, share of evaluable patients” value in [1] (patients with advanced solid tumors, phase I, 7 dose levels) is 41%. For the same compound, the “tumor growth inhibition vs vehicle control” value in the series with Kasumi-1 is recorded as “significant tumor growth inhibition”. Besides, the “overt signs of toxicity (clinical observations)” value in series [2] is recorded as “did not show other overt signs of toxicity”. In series [2] (FIG. 16), the body weight entry is “did not show body weight loss”. The “inhibition of tumor growth, single agent” value in the series with HL-60 (Group 3: 15 mg/kg twice per day i.v., two consecutive days per week (2T-5B)) is reported as “approximately the same extent as or slightly more than azacitidine alone”; in the series with HL-60 (Group 4: 15 mg/kg twice per day i.v., one day per week (1T-6B)), “approximately the same extent as or slightly more than azacitidine alone”; in the series on THP-1, “about the same extent as or slightly more than azacitidine alone”. Further, the “tumor growth inhibition, single agent” value in the series with KG-1 is reported as “significant tumor growth inhibition”.
Turning to `Cc1[nH]c2ccc(F)cc2c1-c1nc2c3cccnc3c3ncccc3c2[nH]1` [LOR-253], in series [3], the “serum level of LOR-253” value is recorded as “dose related increase”. Besides, the cardiovascular effects entry in series [4] is “no treatment-related cardiovascular effects”. For the same compound, in series [5], the “inhibition of hERG tail current density” value is given as “no significant inhibition”. Besides, in the series on CYP450 enzymes, the “inhibition of CYP450 enzymes” value is listed as “no significant inhibition”. Further, the “blood compatibility of IV formulation” value in [6] is “confirmed the suitability of IV formulation”.
